Structures can show the parent of a compound that is named as a salt. Where two headings read alike, the source gives them in different places.
Legend:
human ROCKα/ROCKII mix = biological target: T1, human ROCKα/ROCKII mix (Homo sapiens, UniProt O75116); assay: Biochemical assay for ROCK (fluorescence polarization, ROCK IMAP Kit)
T1 construct: purchased Upstate Biotechnology 14-451

PKC epsilon = biological target: T2, PKC epsilon (Homo sapiens, UniProt Q02156); assay: Biochemical assay for PKC epsilon (fluorescence polarization, Protein Kinase C Assay Kit, Red); details: read-out: IC50 μM PKCε
T2 construct: purchased Invitrogen P2282
T2 sequence (Q02156 1-737): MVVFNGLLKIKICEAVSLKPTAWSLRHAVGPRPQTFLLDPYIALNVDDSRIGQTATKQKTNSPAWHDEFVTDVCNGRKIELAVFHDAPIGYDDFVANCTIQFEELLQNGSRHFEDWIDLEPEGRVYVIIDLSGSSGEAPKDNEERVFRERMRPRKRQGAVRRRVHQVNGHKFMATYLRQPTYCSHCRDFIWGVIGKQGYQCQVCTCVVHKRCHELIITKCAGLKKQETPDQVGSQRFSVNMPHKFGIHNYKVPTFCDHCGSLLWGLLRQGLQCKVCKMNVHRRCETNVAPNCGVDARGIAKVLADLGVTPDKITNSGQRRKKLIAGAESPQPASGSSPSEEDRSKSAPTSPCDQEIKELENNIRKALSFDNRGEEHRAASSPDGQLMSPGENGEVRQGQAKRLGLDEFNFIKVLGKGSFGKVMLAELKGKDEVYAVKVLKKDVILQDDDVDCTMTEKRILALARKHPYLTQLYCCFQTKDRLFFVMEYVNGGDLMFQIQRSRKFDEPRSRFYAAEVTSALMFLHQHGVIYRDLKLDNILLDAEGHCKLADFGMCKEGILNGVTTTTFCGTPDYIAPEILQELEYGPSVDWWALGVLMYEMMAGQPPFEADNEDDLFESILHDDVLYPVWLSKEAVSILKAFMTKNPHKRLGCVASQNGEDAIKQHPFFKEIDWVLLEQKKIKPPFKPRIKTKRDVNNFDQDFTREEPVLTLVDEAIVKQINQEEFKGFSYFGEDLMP
In short: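 Read-out was fluorescence-polarization competition between phosphorylated substrate and a rhodamine PKC tracer for an anti-phosphoserine antibody, added with EDTA stop after an 80 min room-temperature kinase reaction with ATP and protein substrate (Mg2+/Ca2+ buffer). Enzyme (10 ng/ml final) was preincubated with compound for 30 min.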

[1] = compounds of Formula XIV, Table 3
[2] = Table 2, compounds of Formula XIII

T1 sequence (O75116 11-552 limits assumed): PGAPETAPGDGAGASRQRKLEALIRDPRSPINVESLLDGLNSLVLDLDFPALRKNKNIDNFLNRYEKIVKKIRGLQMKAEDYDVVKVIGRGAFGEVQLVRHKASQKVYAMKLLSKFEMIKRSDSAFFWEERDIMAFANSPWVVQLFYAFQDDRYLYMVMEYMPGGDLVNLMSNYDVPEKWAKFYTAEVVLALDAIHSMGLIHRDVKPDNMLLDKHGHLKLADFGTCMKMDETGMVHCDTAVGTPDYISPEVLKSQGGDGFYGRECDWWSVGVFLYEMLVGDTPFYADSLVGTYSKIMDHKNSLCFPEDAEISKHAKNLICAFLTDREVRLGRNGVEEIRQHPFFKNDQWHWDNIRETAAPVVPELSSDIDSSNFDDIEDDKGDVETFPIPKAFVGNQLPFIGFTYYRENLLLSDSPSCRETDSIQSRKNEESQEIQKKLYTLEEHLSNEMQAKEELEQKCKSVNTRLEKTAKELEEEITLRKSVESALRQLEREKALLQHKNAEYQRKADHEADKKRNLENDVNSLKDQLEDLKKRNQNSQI

Row | SMILES | IC50 (human ROCKα/ROCKII mix; [2]) [µM] | IC50 (PKC epsilon; [2]) [µM] | also measured
1 | NC(CC(=O)Nc1ccc(CO)cc1)c1ccc(C(=O)Nc2ccncc2)cc1 (centres unmarked) [Compound 320, 4-[1-Amino-2-(4-hydroxymethyl-phenyl-carbamoyl)-ethyl]-N-pyridin-4-yl-benzamide] | – | – | IC50 (human ROCKα/ROCKII mix; [1]): 0.05 to 0.5 µM; IC50 (PKC epsilon; [1]): 0.5 to 5 µM
2 | NC(CC(=O)Nc1ccc2[nH]ccc2c1)c1ccc(C(=O)Nc2ccncc2)cc1 (centres unmarked) [Compound 321, 4-[1-Amino-2-(1H-indol-5-ylcarbamoyl)-ethyl]-N-pyridin-4-yl-benzamide] | – | – | IC50 (human ROCKα/ROCKII mix; [1]): 0.05 to 0.5 µM; IC50 (PKC epsilon; [1]): 0.5 to 5 µM
3 | NC(CC(=O)Nc1ccc2cc[nH]c2c1)c1ccc(C(=O)Nc2ccncc2)cc1 (centres unmarked) [Compound 322, 4-[1-Amino-2-(1H-indol-6-ylcarbamoyl)-ethyl]-N-pyridin-4-yl-benzamide] | – | – | IC50 (human ROCKα/ROCKII mix; [1]): 0.05 to 0.5 µM; IC50 (PKC epsilon; [1]): 0.05 to 0.5 µM
4 | NC(CC(=O)Nc1cc(-c2ccco2)[nH]n1)c1ccc(C(=O)Nc2ccncc2)cc1 (centres unmarked) [Compound 323, 4-[1-Amino-2-(5-furan-2-yl-1H-pyrazol-3-ylcarbamoyl)-ethyl]-N-pyridin-4-yl-benzamide] | – | – | IC50 (human ROCKα/ROCKII mix; [1]): 0.05 to 0.5 µM; IC50 (PKC epsilon; [1]): 0.5 to 5 µM
5 | NC(CC(=O)NNC(=O)c1ccco1)c1ccc(C(=O)Nc2ccncc2)cc1 (centres unmarked) [Compound 325, 4-{1-amino-3[N′-(furan-2-carbonyl)-hydrazino]-3-oxo-propyl}-N-pyridin-4-yl-benzamide] | – | – | IC50 (human ROCKα/ROCKII mix; [1]): 0.05 to 0.5 µM; IC50 (PKC epsilon; [1]): 0.5 to 5 µM
6 | NC(CNC(=O)Nc1ccc(Cl)cc1)c1ccc(C(=O)Nc2ccncc2)cc1 (centres unmarked) [Compound 326, 4-{1-Amino-2-[3-(4-chloro-phenyl)-ureido]-ethyl}-N-pyridin-4-yl-benzamide] | – | – | IC50 (human ROCKα/ROCKII mix): 0.05 to 0.5 µM; IC50 (PKC epsilon): 0.05 to 0.5 µM
7 | COc1ccc(CC(=O)NCC(N)c2ccc(C(=O)Nc3ccncc3)cc2)cc1F (centres unmarked) [Compound 327, 4-{1-Amino-2-[2-(3-fluoro-4-methoxy-phenyl)-acetylamino]-ethyl}-N-pyridin-4-yl-benzamide] | 0.05 to 0.5 | 0.5 to 5 | –
8 | COc1ccc(C2(C(=O)NCC(N)c3ccc(C(=O)Nc4ccncc4)cc3)CCCC2)cc1 (centres unmarked) [Compound 344, 4-(1-Amino-2-{[1-(4-methoxy-phenyl)-cyclopentanecarbonyl]-amino}-ethyl)-N-pyridin-4-yl-benzamide] | 0.05 to 0.5 | 0.05 to 0.5 | –
9 | NC(CNC(=O)C1(c2ccc(Cl)c(Cl)c2)CC1)c1ccc(C(=O)Nc2ccncc2)cc1 (centres unmarked) [Compound 345, 4-(1-Amino-2-{[1-(3,4-dichloro-phenyl)-cyclopropanecarbonyl]-amino}-ethyl)-N-pyridin-4-yl-benzamide] | 0.05 to 0.5 | 0.05 to 0.5 | –
10 | CC(C)(C(=O)NCC(N)c1ccc(C(=O)Nc2ccncc2)cc1)c1ccsc1 (centres unmarked) [Compound 346, 4-[1-Amino-2-(2-methyl-2-thiophen-3-yl-propionylamino)-ethyl]-N-pyridin-4-yl-benzamide] | 0.05 to 0.5 | 0.05 to 0.5 | –
11 | NC(CNC(=O)C1(c2ccsc2)CC1)c1ccc(C(=O)Nc2ccncc2)cc1 (centres unmarked) [Compound 347, 4-{1-Amino-2-[(1-thiophen-3-yl-cyclopropanecarbonyl)-amino]-ethyl}-N-pyridin-4-yl-benzamide] | 0.05 to 0.5 | 0.05 to 0.5 | –
12 | NC(CC(=O)N[C@H]1CCc2ccccc21)c1ccc(C(=O)Nc2ccncc2)cc1 (stereo partly drawn) [Compound 357, 4-[1-Amino-2-((S)-indan-1-ylcarbamoyl)-ethyl]-N-pyridin-4-yl-benzamide] | – | – | IC50 (human ROCKα/ROCKII mix; [1]): 0.05 to 0.5 µM; IC50 (PKC epsilon; [1]): 0.5 to 5 µM
13 | NC(CC(=O)N[C@@H]1CCc2ccccc21)c1ccc(C(=O)Nc2ccncc2)cc1 (stereo partly drawn) [Compound 358, 4-[1-Amino-2-((R)-indan-1-ylcarbamoyl)-ethyl]-N-pyridin-4-yl-benzamide] | – | – | IC50 (human ROCKα/ROCKII mix; [1]): 0.05 to 0.5 µM; IC50 (PKC epsilon; [1]): 0.05 to 0.5 µM
14 | N[C@H](CC(=O)N[C@H]1CCCc2ccccc21)c1ccc(C(=O)Nc2ccncc2)cc1 [Compound 372, 4-{(R)-1-Amino-2-[(S)-(1,2,3,4-tetrahydro-naphthalen-1-yl)carbamoyl]-ethyl}-N-pyridin-4-yl-benzamide dihydrochloric acid salt] | – | – | IC50 (human ROCKα/ROCKII mix): 0.05 to 0.5 µM; IC50 (PKC epsilon): 0.5 to 5 µM
15 | N[C@@H](CC(=O)N[C@@H]1CCCc2ccccc21)c1ccc(C(=O)Nc2ccncc2)cc1 [Compound 374, 4-{(S)-1-Amino-2-[(R)-(1,2,3,4-tetrahydro-naphthalen-1-yl)carbamoyl]-ethyl}-N-pyridin-4-yl-benzamide dihydrochloric acid salt] | – | – | IC50 (human ROCKα/ROCKII mix): 0.05 to 0.5 µM; IC50 (PKC epsilon): 0.5 to 5 µM
16 | N[C@@H](CC(=O)N[C@H]1CCCc2ccccc21)c1ccc(C(=O)Nc2ccncc2)cc1 [Compound 375, 4{(S)-1-Amino-2-[(S)-(1,2,3,4-tetrahydro-naphthalen-1-yl)carbamoyl]-ethyl}-N-pyridin-4-yl-benzamide dihydrochloric acid salt] | – | – | IC50 (human ROCKα/ROCKII mix): 0.05 to 0.5 µM; IC50 (PKC epsilon): 5 to 50 µM

The next lines start with results.

Row | IC50 (human ROCKα/ROCKII mix; [2]) [µM] | IC50 (PKC epsilon; [2]) [µM] | SMILES | also measured
17 | 0.05 to 0.5 | < 0.05 | CC(C)(C(=O)NCC(N)c1ccc(C(=O)Nc2ccncc2)cc1)c1cccs1 (centres unmarked) [Compound 348, 4-[1-Amino-2-(2-methyl-2-thiophen-2-yl-propionylamino)-ethyl]-N-pyridin-4-yl-benzamide] | –
18 | 0.05 to 0.5 | 0.05 to 0.5 | NC(CNC(=O)C1(c2cccs2)CC1)c1ccc(C(=O)Nc2ccncc2)cc1 (centres unmarked) [Compound 349, 4-{1-Amino-2-[(1-thiophen-2-yl-cyclopropanecarbonyl)-amino]-ethyl}-N-pyridin-4-yl-benzamide] | –
19 | 0.05 to 0.5 | 0.05 to 0.5 | COc1ccc2c(c1)CCCC2C(=O)NCC(N)c1ccc(C(=O)Nc2ccncc2)cc1 (centres unmarked) [Compound 355, 6-Methoxy-1,2,3,4-tetrahydro-naphthalene-1-carboxylic acid {2-amino-2-[4-(pyridin-4-ylcarbamoyl)-phenyl]-ethyl}-amide] | –
20 | 0.05 to 0.5 | < 0.05 | NC(CNC(=O)C1(c2ccc(F)c(F)c2)CC1)c1ccc(C(=O)Nc2ccncc2)cc1 (centres unmarked) [Compound 377, 4-(1-Amino-2-{[1-(3,4-difluoro-phenyl)-cyclopropanecarbonyl]-amino}-ethyl)-N-pyridin-4-yl-benzamide] | –
21 | 0.05 to 0.5 | < 0.05 | NC(CNC(=O)C1(c2ccc(F)c(F)c2)CCC1)c1ccc(C(=O)Nc2ccncc2)cc1 (centres unmarked) [Compound 378, 4-(1-Amino-2-{[1-(3,4-difluoro-phenyl)-cyclobutanecarbonyl]-amino}-ethyl)-N-pyridin-4-yl-benzamide] | –
22 | 0.05 to 0.5 | < 0.05 | NC(CNC(=O)C1(c2ccc(F)c(F)c2)CCCC1)c1ccc(C(=O)Nc2ccncc2)cc1 (centres unmarked) [Compound 379, 4-(1-Amino-2-{[1-(3,4-difluoro-phenyl)-cyclopentanecarbonyl]-amino}-ethyl)-N-pyridin-4-yl-benzamide] | –
23 | 0.05 to 0.5 | < 0.05 | CC(C)(C(=O)NCC(N)c1ccc(C(=O)Nc2ccncc2)cc1)c1ccc(Cl)c(Cl)c1 (centres unmarked) [Compound 380, 4-{1-Amino-2-[2-(3,4-dichloro-phenyl)-2-methyl-propionylamino]-ethyl}-N-pyridin-4-yl-benzamide] | –
24 | 0.05 to 0.5 | 0.05 to 0.5 | NC(CNC(=O)C1(c2ccc(Cl)c(Cl)c2)CCC1)c1ccc(C(=O)Nc2ccncc2)cc1 (centres unmarked) [Compound 381, 4-(1-Amino-2-{[1-(3,4-dichloro-phenyl)-cyclobutanecarbonyl]-amino}-ethyl)-N-pyridin-4-yl-benzamide] | –
25 | 0.05 to 0.5 | < 0.05 | CC(C)(C(=O)NCC(N)c1ccc(C(=O)Nc2ccncc2)cc1)c1ccc(F)c(Cl)c1 (centres unmarked) [Compound 382, 4-{1-Amino-2-[2-(3-chloro-4-fluoro-phenyl)-2-methyl-propionylamino]-ethyl}-N-pyridin-4-yl-benzamide] | –
